Drawing on patent US6034238A, “Heterocyclic compounds, their preparation and their use as leucocyte adhesion inhibitors and VLA-4-antagonists” (Hoechst Marion Roussel Deutschland GmbH, priority 1997, dated 2000), this text covers IC50 for 4 compounds.

In this assay the target is T1, interaction between VCAM-1 and VLA-4 (Homo sapiens, UniProt P05556+P13612).
T1 construct: supplied in their natural form as surface molecules on human U937 cells; host or cells: U937 (human)
T1 sequence (P13612 34-1032): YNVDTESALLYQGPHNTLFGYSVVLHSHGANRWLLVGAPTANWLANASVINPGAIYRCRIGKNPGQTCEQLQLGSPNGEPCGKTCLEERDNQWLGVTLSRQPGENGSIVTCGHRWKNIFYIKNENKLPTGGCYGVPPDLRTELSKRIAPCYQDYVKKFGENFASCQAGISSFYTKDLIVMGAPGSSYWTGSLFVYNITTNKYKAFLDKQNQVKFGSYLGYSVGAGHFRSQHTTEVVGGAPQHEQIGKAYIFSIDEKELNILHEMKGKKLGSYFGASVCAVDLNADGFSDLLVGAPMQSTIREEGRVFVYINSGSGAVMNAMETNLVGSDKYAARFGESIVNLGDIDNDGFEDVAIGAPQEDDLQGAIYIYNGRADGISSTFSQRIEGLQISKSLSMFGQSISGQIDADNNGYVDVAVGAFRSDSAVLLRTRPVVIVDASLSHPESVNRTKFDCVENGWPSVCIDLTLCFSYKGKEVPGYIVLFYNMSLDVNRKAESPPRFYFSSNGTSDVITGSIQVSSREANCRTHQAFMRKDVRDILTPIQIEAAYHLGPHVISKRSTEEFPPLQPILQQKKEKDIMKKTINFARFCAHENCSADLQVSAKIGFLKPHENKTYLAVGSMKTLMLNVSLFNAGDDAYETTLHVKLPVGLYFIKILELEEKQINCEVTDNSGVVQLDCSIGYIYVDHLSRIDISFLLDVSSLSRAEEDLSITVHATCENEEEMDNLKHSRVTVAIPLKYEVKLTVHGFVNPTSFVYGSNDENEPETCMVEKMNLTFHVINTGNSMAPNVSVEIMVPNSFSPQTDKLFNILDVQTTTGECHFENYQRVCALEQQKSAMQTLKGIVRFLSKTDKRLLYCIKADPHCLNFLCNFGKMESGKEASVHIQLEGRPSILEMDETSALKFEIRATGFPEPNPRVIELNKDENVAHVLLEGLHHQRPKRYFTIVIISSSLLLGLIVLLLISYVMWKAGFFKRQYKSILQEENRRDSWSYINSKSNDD
T1 sequence (P05556 21-798): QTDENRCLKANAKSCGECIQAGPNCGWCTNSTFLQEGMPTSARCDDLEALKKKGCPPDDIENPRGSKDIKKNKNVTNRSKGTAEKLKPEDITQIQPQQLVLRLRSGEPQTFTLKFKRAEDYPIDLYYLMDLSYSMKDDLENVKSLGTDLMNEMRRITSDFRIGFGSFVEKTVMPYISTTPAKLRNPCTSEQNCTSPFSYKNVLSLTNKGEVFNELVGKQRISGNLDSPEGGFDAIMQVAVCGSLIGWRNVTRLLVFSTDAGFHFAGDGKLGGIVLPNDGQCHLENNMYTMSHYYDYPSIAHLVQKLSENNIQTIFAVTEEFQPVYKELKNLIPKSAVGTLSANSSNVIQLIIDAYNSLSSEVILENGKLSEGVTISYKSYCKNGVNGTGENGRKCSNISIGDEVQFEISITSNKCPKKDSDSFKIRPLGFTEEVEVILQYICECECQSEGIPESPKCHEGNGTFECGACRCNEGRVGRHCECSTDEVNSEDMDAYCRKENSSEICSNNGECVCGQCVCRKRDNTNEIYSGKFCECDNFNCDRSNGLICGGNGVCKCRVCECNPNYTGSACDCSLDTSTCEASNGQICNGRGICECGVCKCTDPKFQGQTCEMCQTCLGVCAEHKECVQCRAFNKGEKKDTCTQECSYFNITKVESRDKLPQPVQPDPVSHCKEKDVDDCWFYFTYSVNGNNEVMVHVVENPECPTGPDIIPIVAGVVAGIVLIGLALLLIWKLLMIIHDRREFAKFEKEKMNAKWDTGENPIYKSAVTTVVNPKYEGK
In words: U937/VCAM-1 cell adhesion test (adhesion of U937 cells to hVCAM-1 (1-3)-IgG). Format: cell-based. As to conditions: read-out: IC50 (50% inhibition of adhesion). The source says:
The test method used for the activity of the compounds of the formula I on the interaction between VCAM-1 and VLA-4 is an assay which is specific for this interaction. The cellular binding components, i.e., the VLA4 integrins, are supplied in their natural form as surface molecules on human U937 cells (ATCC CRL 1593), which belong to the leucocytes group. The specific binding components used are genetically engineered recombinant soluble fusion proteins, consisting of the extracytoplasmatic domain of human VCAM-1 and the constant region of a human immunoglobulin of the subclass IgG1.
Assay for the measurement of the adhesion of U937 cells (ATCC CRL 1593) to hVCAM-1 (1-3)-IgG
1. Preparation of human VCAM-1(1-3)-IgG and human CD4-IgG
A genetic construct for the expression of the extracellular domain of human VCAM-1, associated with the genetic sequence of the heavy chain of human immunoglobulin IgG1 (hinge, CH2 and CH3 regions), from Dr. Brian Seed, Massachusetts General Hospital, Boston, USA (cf. Damle and Aruffo, Proc. NatI. Acad. Sci. USA 1991, 88, 6403-6407) was employed. The soluble fusion protein hVCAM-1 (1-3)-IgG contained the three amino-terminal extracellular immunoglobulin-like domains of human VCAM-1 (Damle and Aruffo, Proc. Natl. Acad. Sci. USA 1991, 88, 6403). CD4-IgG (Zeftimeissl et al., DNA and Cell Biology 1990, 9, 347) served as a fusion protein for negative controls. The recombinant proteins were expressed as soluble proteins after DEAE/dextran-mediated DNA transfection in COS cells (ATCC CRL1651) according to standard procedures (Ausubel et al., Current Protocols in Molecular Biology, John Wiley & Sons, Inc., 1994).
2. Assay for the measurement of the adhesion of U937 cells to hVCAM-1 (1-3)-IgG
2.1 96-well microtiter test plates (Nunc Maxisorb) were incubated at room temperature for 1 hour with 100 μl/well of a goat-anti-human-IgG antibody solution (10 μg/ml in 50 mM tris, pH 9.5). After removal of the antibody solution, washing was carried out once with PBS.
2.2 150 μl/well of a blocking buffer (1% BSA in PBS) was incubated on the plates at room temperature for 0.5 hour. After removal of the blocking buffer, washing was carried out once with PBS.
2.3 100 μl per well of a cell culture supernatant of transfected COS cells was incubated on the plates at room temperature for 1.5 hours. The COS cells were transfected with a plasmid which codes for the three N-terminal immunoglobulin-like domains of VCAM-1, coupled to the Fc part of human IgG1 (hVCAM-1(1--3)-IgG). The content of hVCAM-1 (1-3)-IgG was about 0.5-1 μg/ml. After removal of the culture supernatant washing was carried out once with PBS. […]
For `CC1(c2ccc(C(=N)N)cc2)C(=O)N(CC(=O)NC[C@H](NC(=O)OCC23CC4CC(CC(C4)C2)C3)C(=O)O)C(=O)N1Cc1ccccc1` (stereo partly drawn) [Example 1, (S)-3-(((R,S)-4-(4-(Amino-imino-methyl)phenyl)-3-benzyl-4-methyl-2,5-dioxoimidazolidin-1-yl)acetylamino)-2-(1-adamantylmethyloxy-carbonylamino)propionic acid], the IC50 was found to be 1.25 µM.

Turning to `CC(C)[C@H](NC(=O)[C@H](CC(=O)O)N(C)C(=O)CN1C(=O)N(Cc2ccc3ccccc3c2)C(C)(c2ccc(C(=N)N)cc2)C1=O)C(=O)N1CCOCC1` (stereo partly drawn) [Example 5, ((R,S)-4-(4-(Amino-imino-methyl)phenyl)-3-(2-naphthylmethyl)-4-methyl-2,5-dioxoimidazolidin-1-yl)acetyl-L-(N-methylaspartyl)-L-valine morpholide], the IC50 worked out at 0.73 µM.

For `CC1(c2ccc(C(=N)N)cc2)C(=O)N(CC(=O)NC[C@H](NC(=O)NCc2ccccc2)C(=O)O)C(=O)N1Cc1ccccc1` (stereo partly drawn) [Example 3, (S)-3-(((R,S)-4-(4-(Amino-imino-methyl)phenyl)-3-benzyl-4-methyl-2,5-dioxoimidazolidin-1-yl)acetylamino)-2-benzylaminocarbonylaminopropionic acid], the IC50 is 11.5 µM.

On to `CC1(c2ccc(C(=N)N)cc2)C(=O)N(CC(=O)NC[C@H](NC(=S)NCc2ccccc2)C(=O)O)C(=O)N1Cc1ccccc1` (stereo partly drawn) [Example 4, (S)-(((R,S)-4-(4-(Amino-imino-methyl)phenyl)-3-benzyl-4-methyl-2,5-dioxoimidazolidin-1-yl)acetylamino)-2-benzylaminothiocarbonylamino-propionic acid], for which the IC50 amounted to 10.5 µM.
